The record followed here is patent US20240252472A1, “COMBINATIONS FOR TREATING CANCER” (Purdue Pharma L.P., priority 2023, published 2024).

Common to all, as to assay type: in vivo
Assay [1] has as its system subcutaneous plasmacytoma derived from MM1.S cells. Description: Second subcutaneous plasmacytoma model, CB17-SCID mice. The conditions noted are these: EDO-S101 30 mg/kg i.v. weekly, daratumumab 8 mg/kg i.p. weekly, 4 weeks; vehicle 34 days. The source says:
For the second subcutaneous human plasmacytoma model, CB17-SCID mice (The Jackson Laboratory) were used. CB17-SCID mice were randomised into groups (n=5). The design of the experiment (treatment doses and time schedule) was identical to the experiment described above with NSG mice except for the inoculation of NK cells, since CB17-SCID mice have their own functional NK cells.
For the second subcutaneous human plasmacytoma model, CB17-SCID mice (20 female mice, 5-6 weeks old; from The Jackson Laboratory) were used. The design of the experiment (treatment doses and time schedule) was identical to the one performed with NSG mice except for the inoculation of human NK cells, since CB17-SCID mice hold their own functional NK cells (Dorshkind et al., J Immunol 134:3798-3801, 1985).
In the second xenograft plasmacytoma model, CB17-SCID mice bearing a subcutaneous plasmacytoma derived from MM1.S cells were randomized to receive vehicle, daratumumab, EDO-S101 or the double combination. Mice were treated with EDO-S101 on Mondays and daratumumab was administered on Tuesdays. […] Furthermore, statistical differences in survival were also found between the combination vs vehicle (58 days±2.739 vs 34 days±2.191 days, respectively; p=0.003).

A further assay concerns MM1S-luc derived tumors. Description: Disseminated human myeloma model, CB17-SCID mice. The conditions noted are these: EDO-S101 15 mg/kg i.v. weekly, daratumumab 8 mg/kg i.p. weekly, 4 weeks; vehicle 33 days. As to the method:
MM1S-luc cells (3×10^6) were injected intravenously (i.v.) into CB17-SCID mice which were determined to have normal NK cells, monocytes and granulocytes (The Jackson Laboratory, Bar Harbor, ME, USA). Tumor development was monitored by non-invasive bioluminescence imaging (BLI) with a Xenogen IVIS 50 system (Caliper Life Sciences, Hopkinton, MA, USA). Mice were randomized into four groups (n=5/group): one receiving vehicle (i.v., weekly), another group receiving EDO-S101 (15 mg/kg i.v., weekly on Tuesdays), another group receiving daratumumab (8 mg/kg i.p., weekly on Wednesdays) and the last group receiving the double combination of EDO-S101+daratumumab. Both drugs were administered over a period of 4 weeks.
CB17-SCID mice bearing MM1S-luc derived tumors were treated with EDO-S101, daratumumab, a combination thereof, or vehicle, in accordance with the methods outlined above. MM1S-Luc cells (3×10^6) were intravenously injected into CB17-SCID mice. After 2 weeks, mice were randomized into four groups: one receiving vehicle (i.v., weekly), another group receiving EDO-S101 (15 mg/kg i.v., weekly on Tuesdays), another group receiving daratumumab (8 mg/kg i.p., weekly on Wednesdays) and the last group received the double combination of EDO-S101+daratumumab. Survival of mice analyzed with a Kaplan-Meier curve. Both drugs were administered over a period of 4 weeks.

The test system of assay [2] is subcutaneous plasmacytoma derived from MM.1S cells. In words: First subcutaneous plasmacytoma model, NSG mice with human NK cells. Particulars: EDO-S101 30 mg/kg i.v. weekly, daratumumab 8 mg/kg i.p. weekly, 4 weeks; vehicle 30 days. How it is done:
For the first subcutaneous human plasmacytoma model, NSG mice (Charles River Laboratories, Wilmington, MA, USA) were subcutaneously inoculated into the right flank with 3×10^6 MM1S in 100 μL RPMI 1640 medium and 100 μL of Matrigel (BD Biosciences). When tumors developed, mice were injected with human NK cells isolated from buffy coats from healthy donors and randomized (4 mice/group) to receive: EDO-S101 (30 mg/kg, iv weekly), daratumumab (8 mg/kg, ip weekly), a combination thereof, or vehicle (PBS vehicle solution with 15% HPBCD, 1.5% acetic acid, and 1.25% NaHCO3). Both, NK cells and the treatments were administered over four consecutive weeks. Caliper measurements of the tumor diameters were performed three times a week, and the tumor volume was estimated as the volume of a 3D ellipse using the following formula: V=4/3π×(a/2)×(b/2)^2, where “a” and “b” correspond to the longest and shortest diameter, respectively. Animals were killed when their tumors reached 2 cm. Differences in tumor volumes between control and treated groups were evaluated using one-way analysis of variance and Dunn's post-hoc tests. […]

As to “daratumumab: anti-CD38 monoclonal antibody clinically approved for multiple myeloma [reference compound]”, the overall median survival in assay [1] was found to be 41 days. Besides, the median survival in the assay with MM1S-luc derived tumors was 59 days; in assay [2], 34 days.
